Reference: patent US9663495B2 (YUHAN CORPORATION, priority 2013, dated 2017)

What was measured:
GPR119 [1] = biological target: T1, GPR119 (Homo sapiens, UniProt Q8TDV5); assay: cAMP Accumulation Assay (GPR119 CRE-bla CHO-K1 cells, LiveBLAzer-FRET B/G); format: cell-based; conditions: (Emax of the test compound/Emax of MBX-2982)x100, 5 hours incubation
T1 construct: host or cells: CHO-K1 (GPR119 CRE-bla, doxycycline-induced)
T1 sequence (Q8TDV5 1-335): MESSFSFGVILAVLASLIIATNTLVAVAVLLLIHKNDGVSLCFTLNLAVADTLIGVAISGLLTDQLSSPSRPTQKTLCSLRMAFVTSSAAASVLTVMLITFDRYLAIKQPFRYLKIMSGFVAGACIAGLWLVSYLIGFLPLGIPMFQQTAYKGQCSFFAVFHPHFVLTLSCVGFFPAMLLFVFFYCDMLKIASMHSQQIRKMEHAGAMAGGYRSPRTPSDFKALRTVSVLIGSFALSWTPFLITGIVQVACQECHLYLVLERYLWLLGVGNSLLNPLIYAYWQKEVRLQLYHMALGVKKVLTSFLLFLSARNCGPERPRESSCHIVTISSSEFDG

GPR119 [2] = biological target: T1, GPR119; assay: as above; format: cell-based; conditions: for EC50: 5 hours incubation; for Emax (Fold): maximum activity, response ratio versus non-treated control group
male C57BL/6 mice = assay: Oral Glucose Tolerance Test (OGTT); format: in vivo; set-up: concentration or dose not given beside the values; conditions: fasted male C57BL/6 mice, oral administration 30 minutes before oral glucose; AUCglucose 0-120 minutes versus negative control group
Protocol: The oral glucose tolerance test of the compounds according to the present invention was carried out according to the procedures disclosed in Andrikopoulos S, Blair A R, Deluca N, Fam B C, Proietto J, Am J Physiol Endocrinol Metab. 2008, Vol 295, E1323-1332. Briefly, male C57BL/6 mice at 8 to 9 weeks of age having 20 g to 25 g of body weight (Orient Bio Inc. Korea) were allowed to acclimatize to the surroundings (temperature: 20±2° C., humidity: 40-60%, light/dark cycle: 12 hours) for 1 week. During the acclimatization, the mice were given ad libitum access to feed and water. The mice were fasted from 18 hours before the test, except for allowing free access to water. After measuring the mice′ body weights and blood sugar levels, they were divided into test groups so as to have similar blood sugar levels. The mice were orally administered with a mixture of test compound and the diluent (0.5% solution of MC1500 (Sigma)). At 30 minutes after the administration, the mice were also orally administered with 20% glucose solution in an amount of 0.1 ml per 10 g of body weight. The blood samples were taken from the tail vain at 0 (right before the administration of the glucose solution), 15, 30, 60, 90, and 120 minutes after the administration of the glucose solution; and the blood sugar levels thereof were measured with a blood glucose test meter (GlucoDr. AGM-3000, All Medicus Co. Ltd.). The graph for blood sugar level on time for each test compound was plotted from the respective blood sugar values; and then area under the curve (AUCglucose) was determined. The inhibition rate of blood sugar (%) was calculated from the following formula. Inhibition rate of blood sugar (%)=[(AUCglucose of the negative control group−AUCglucose of the test group)/AUCglucose of the negative control group]×100

Row | Emax (% RR) (GPR119 [1]) | EC50 (GPR119 [2]) [nM] | Emax (Fold) (GPR119 [2]) | Compound | Inhibition rate of blood sugar (%) (male C57BL/6 mice)
1 | 120.0 | 36 | 3.5 | CC(C)c1nc(C2CCN(c3ncc(-c4ccc(-n5cnn([C@@H]6CCOC6)c5=O)cc4)cc3C#N)CC2)no1 [Example 70, (R)-2-(4-(5-isopropyl-1,2,4-oxadiazol-3-yl)piperidin-1-yl)-5-(4-(5-oxo-1-(tetrahydrofuran-3-yl)-1H-1,2,4-triazol-4(5H)-yl)phenyl)nicotinonitrile] | 25.2
2 | 109.1 | 4 | 2.7 | CCCn1ncn(-c2ccc(-c3cnc(N4CCN(C(=O)OC(C)(C)C)C[C@@H]4C)c(C#N)c3)cc2F)c1=O [Example 5, (S)-tert-butyl 4-(3-cyano-5-(3-fluoro-4-(5-oxo-1-propyl-1H-1,2,4-triazol-4(5H)-yl)phenyl)pyridin-2-yl)-3-methylpiperazin-1-carboxylate] | 21.9
3 | 130.9 |  | 3.8 | CCc1cnc(N2CCN(c3ncc(-c4ccc(-n5cnn(C(C)C)c5=O)c(F)c4)cc3C#N)CC2)nc1.Cl [Example 43, 2-(4-(5-ethylpyrimidin-2-yl)piperazin-1-yl)-5-(3-fluoro-4-(1-isopropyl-5-oxo-1H-1,2,4-triazol-4(5H)-yl)phenyl)nicotinonitrile hydrochloride] | 25.2
